Source: paper PMC9317966, “Structure-function analysis of the AMPK activator SC4 and identification of a potent pan AMPK activator” (Biochemical Journal, 2022)

Legend:
γ1AMPK complexes = experiment: Radiolabel kinase assay, immobilised GST-tagged γ1AMPK (stated across γ1 complexes); assay type: biochemical, human
Excerpt: We directly compared in vitro potencies of pan activators by performing radiolabel kinase assays with γ1AMPK complexes. Initially, we used GST-tagged γ1AMPK expressed in HEK293T/17 cells and immobilised on glutathione-Sepharose (Figure 2 and Table 2). […] These assays used AMPK purified from Sf9 insect cells or E. coli that was pre-treated with CaMKK2. […] However, relative to immobilised GST-α2β1γ1 from HEK293T/17 cells, His-tagged and myristoylated α2β1γ1 AMPK (expressed in E. coli, CaMKK2-treated and assayed in solution) was at least 10-fold more sensitive to activation by both MK-8722 and MSG011 (Supplementary Figure S3B), indicating the GST-affinity tag or CaMKK2 treatment may exert some influence on sensitivity to these activators.
Adherent HEK293T/17 cells at ∼50% confluency were triply transfected with full-length AMPK α1 or α2 (NH2-terminal GST fusion, pDEST27 vector), β1 or β2 (COOH-terminal FLAG fusion, pcDNA3.1 vector), and γ1, γ2 or γ3 (NH2-terminal HA fusion, pMT2 vector) in the presence of FuGENE HD transfection reagent (Promega) as per the manufacturers protocol. Cells were harvested 48 hours post-transfection by first gently washing in ice cold phosphate buffered saline (PBS; Sigma–Aldrich), then scraping in ice cold lysis buffer (50 mM TRIS pH 7.5, 150 mM NaCl, 10% (v/v) glycerol, 50 mM NaF, 5 mM sodium pyrophosphate, 1% (v/v) Triton X-100, cOmplete protease inhibitor cocktail). Lysates were clarified by centrifugation (16 000g, 3 min, 4°C), flash frozen in liquid N2 and stored at −80°C until analysis. For radioactive kinase assays, AMPK was immobilised on glutathione Sepharose 4B resin (GE Healthcare) by incubation with lysates for 1.5 h at 4°C. Following centrifugation (1000g, 3 min, 4°C), the resin was washed twice in purification buffer (50 mM HEPES pH 7.4, 150 mM NaCl, 10% (v/v) glycerol, 0.02% (v/v) Tween-20), once in 50 mM HEPES pH 7.4 with 0.02% (v/v) Tween-20, then resuspended to a 50% slurry with 50 mM HEPES pH 7.4 and 10 µl added to the activity assays. For in solution kinase assays, α1β1γ1 AMPK was eluted from glutathione-Sepharose by incubating with purification buffer supplemented with 40 mM reduced glutathione (Sigma–Aldrich).
AMPK activity was determined by phosphorylation of the SAMS peptide (Purar Chemicals, sequence: NH2-HMRSAMSGLHLVKRR-COOH) in a 25 µl reaction volume containing 100 µM SAMS peptide, 5 mM MgCl2, 200 µM ATP, [γ-^32P]-ATP (PerkinElmer) and assay buffer (50 mM HEPES pH 7.4, 1 mM DTT and 0.02% (v/v) Tween-20) and purified AMPK. […] Ultima Gold liquid scintillation fluid (5 ml; PerkinElmer) was added to vials containing dried phosphocellulose papers, and the level of ^32P-transfer to the SAMS peptide was determined using a Tri-Carb 2900TR liquid scintillation counter (PerkinElmer).

C2C12 myoblasts = experiment: C2C12 oxygen consumption rate (Seahorse), mitochondrial function; assay type: cell-based, Murine; details: for basal respiration, ATP production, maximal respiration, spare respiratory capacity, non-mitochondrial oxygen consumption and coupling efficiency: 1 h
Description: Murine C2C12 myoblasts were plated at 1 × 10^4 cells/well into Agilent Seahorse XFe24 Cell Culture Microplates in DMEM (life Technologies, Australia) containing 10% (v/v) fetal calf serum, 1% L-glutamine (v/v), and 1% (v/v) antibiotic solution (100 unit/ml penicillin/streptomycin) at 37°C in an atmosphere of 5% CO2. The next day, cells were switched to Seahorse basal assay media (Agilent, cat#: 102353-100; 48.5 ml) containing Glutamax (500 µl of 100×; Gibco, cat#35050), D-glucose (Sigma–Aldrich cat#: G8769) and sodium pyruvate (100×; Gibco cat#: 11360-070) at pH 7.4. MK-8722 at varying doses (0, 1, 10 µM) was incubated with myotubes 1 h prior to experiment, and the assay performed by titrating oligomycin (2 µM), FCCP (2 µM), and rotenone (2 µM) plus antimycin A (2 µM) as indicated. A Seahorse XFe24 Flux Analyzer (Seahorse Biosciences) was used to measure Oxygen Consumption Rate (OCR) at three time points during basal respiration and after each injection. Cells were lysed in equal volume (20 µl) and OCR measurements were normalised to total protein determined by polyacrylamide electrophoresis (5 µl lysate/well) and stain-free imaging.
Lysates were assessed for phosphorylation of AMPKα-Thr172 by immunoblot. n = 3, data presented as mean T172 phosphorylation (arbitrary units) ± SEM. Statistical significance vs. respective vehicle treatment was performed using unpaired, two-tailed Student’s t-test. **** P < 0.0001 indicates significant increase in a-Thr172 phosphorylation relative to vehicle treated WT γ1AMPK. Representative immunoblots are shown. (B) C2C12 myoblast oxygen consumption rate following treatment of MK-8722 (0, 1, 10 µM) for 1 h and titration of specific respiration modulators. (C-I) Parameters of mitochondrial function. n = 6-7, data presented as mean oxygen consumption rate ± SEM. […] (J) Lysates were assessed for total protein content following the respiration assay.

## O[C@@H]1CO[C@H]2[C@@H]1OC[C@H]2Oc1nc2nc(-c3ccc(-c4ccccc4)cc3)c(Cl)cc2[nH]1 [MK-8722, reference compound]
γ1AMPK complexes; compared with refs 17, 18
  EC50 fold higher than previously determined by high-throughput fluorescence-based assays in solution: 100–1000 fold
γ1AMPK complexes; immobilised GST-γ1AMPK, read-out: EC50 values for γ1AMPK activation
  EC50: 1.2 to 5.6 µM
C2C12 myoblasts; 0, 1, 10 µM, after respiration assay
  cell viability by total protein stain: not due to loss of cell viability
C2C12 myoblasts; 1 µM
  basal respiration, ATP production, maximal respiration, spare respiratory capacity, non-mitochondrial oxygen consumption and coupling efficiency: not
C2C12 myoblasts; 10 µM
  basal respiration, ATP production, maximal respiration, spare respiratory capacity, non-mitochondrial oxygen consumption and coupling efficiency: significantly impaired
